From ChEMBL document CHEMBL3045936, “Synthesis of new piperidyl indanone derivatives as anticonvulsant agents” (Med Chem Res, 2012)
Activity calls are given as the source filed them. The rule behind the calls is not given here.

How the values were obtained:
Mus musculus [1] = test: Neurotoxicity in ip dosed Mus musculus Swiss albino (mouse) assessed as minimal motor impairment after 0.5 hr by rotorod test; format: toxicity, organism-based; conditions: in vivo
Mus musculus [2] = test: Neurotoxicity in Mus musculus Swiss albino (mouse) assessed as potentiation of ethanol-mediated effect at 100 to 300 mg/kg, ip administered 1 hr followed by ethanol challenge; format: toxicity, organism-based; design: dose 100-300 mg/kg, route intraperitoneal; conditions: in vivo
Mus musculus [3] = test: Neurotoxicity in Mus musculus Swiss albino (mouse) assessed as minimal motor impairment at 300 mg/kg, ip after 4 hr by rotorod test; format: toxicity, organism-based; design: dose 300 mg/kg, route intraperitoneal; conditions: in vivo
Mus musculus [4] = test: Anticonvulsant activity in Mus musculus Swiss albino (mouse) assessed as protection against subcutaneous pentylenetetrazole-induced seizures at 300 mg/kg, ip after 0.5 hr; format: functional, organism-based; design: dose 300 mg/kg
Mus musculus [5] = test: Anticonvulsant activity in ip dosed Mus musculus Swiss albino (mouse) assessed as protection against maximal electroshock-induced seizures after 0.5 hr; format: functional; conditions: read-out: MED
Mus musculus [6] = test: Anticonvulsant activity in ip dosed Mus musculus Swiss albino (mouse) assessed as protection against maximal electroshock-induced seizures after 4 hr; format: functional; conditions: read-out: MED
Mus musculus [7] = test: Anticonvulsant activity in ip dosed Mus musculus Swiss albino (mouse) assessed as protection against subcutaneous pentylenetetrazole-induced seizures after 4 hr; format: functional; conditions: read-out: MED
Mus musculus [8] = test: Anticonvulsant activity in Mus musculus Swiss albino (mouse) assessed as protection against subcutaneous pentylenetetrazole-induced seizures at 300 mg/kg, ip after 4 hr; format: functional, organism-based; design: dose 300 mg/kg
Mus musculus [9] = test: Neurotoxicity in ip dosed Mus musculus Swiss albino (mouse) assessed as minimal motor impairment after 4 hr by rotorod test; format: toxicity, organism-based; conditions: in vivo
Mus musculus [10] = test: Neurotoxicity in Mus musculus Swiss albino (mouse) assessed as minimal motor impairment at 300 mg/kg, ip after 0.5 hr by rotorod test; format: toxicity, organism-based; design: dose 300 mg/kg, route intraperitoneal; conditions: in vivo
Mus musculus [11] = test: Anticonvulsant activity in ip dosed Mus musculus Swiss albino (mouse) assessed as protection against subcutaneous pentylenetetrazole-induced seizures after 0.5 hr; format: functional; conditions: read-out: MED
Mus musculus [12] = test: Anticonvulsant activity in Mus musculus Swiss albino (mouse) assessed as protection against maximal electroshock-induced seizures at 300 mg/kg, ip after 4 hr; format: functional, organism-based; design: dose 300 mg/kg
Rattus norvegicus [13] = test: Anticonvulsant activity in Rattus norvegicus Wistar (rat) assessed as increase in GABA level in cerebellum region measured per 100 mg of tissue at 100 mg/kg, ip after 2 hr (reference value: 25.27 +/- 0.57 ug); format: functional; conditions: route intraperitoneal
[14] = Lipophilicity, log P of the compound; format: physicochemical; conditions: octanol/water
Rattus norvegicus [15] = test: Anticonvulsant activity in Rattus norvegicus Wistar (rat) assessed as increase in GABA level in mid brain region measured per 100 mg of tissue at 100 mg/kg, ip after 2 hr (reference value: 44.38 +/- 0.219 ug); format: functional; conditions: route intraperitoneal
Rattus norvegicus [16] = test: Anticonvulsant activity in Rattus norvegicus Wistar (rat) assessed as increase in GABA level in olfactory lob region measured per 100 mg of tissue at 100 mg/kg, ip after 2 hr (reference value: 13.22 +/- 0.03 ug); format: functional; conditions: route intraperitoneal
Rattus norvegicus [17] = test: Anticonvulsant activity in Rattus norvegicus Wistar (rat) assessed as increase in GABA level in medulla oblongata region measured per 100 mg of tissue at 100 mg/kg, ip after 2 hr (reference value: 40.57 +/- 0.2 ug); format: functional; conditions: route intraperitoneal

With CCCNC(=S)N1CCC(CC2Cc3cc(OC)c(OC)cc3C2=O)CC1 (stereo not drawn) the MTC (Mus musculus [1]) was 300 mg/kg, the Activity (Mus musculus [2]) was “Non-toxic” and the Activity (Mus musculus [3]) was “Non-toxic”. For the same compound, the Activity (Mus musculus [4]) was “inactive”, the minimal effective dose (Mus musculus [5]) was 100 mg/kg and the minimal effective dose (Mus musculus [6]) was 300 mg/kg. The minimal effective dose (Mus musculus [7]) was 300 mg/kg.
With COc1cc2c(cc1OC)C(=O)C(CC1CCN(C(=S)Nc3ccccc3[N+](=O)[O-])CC1)C2 (stereo not drawn) the Activity (Mus musculus [4]) was “inactive”, the minimal effective dose (Mus musculus [5]) was 100 mg/kg and the minimal effective dose (Mus musculus [6]) was 300 mg/kg. For the same compound, the Activity (Mus musculus [8]) was “inactive”, the MTC (Mus musculus [9]) was 300 mg/kg and the Activity (Mus musculus [10]) was “Non-toxic”.
With CCCCNC(=S)N1CCC(CC2Cc3cc(OC)c(OC)cc3C2=O)CC1 (stereo not drawn) the MTC (Mus musculus [1]) was 300 mg/kg, the Activity (Mus musculus [2]) was “Non-toxic” and the minimal effective dose (Mus musculus [5]) was 100 mg/kg. The minimal effective dose (Mus musculus [6]) was 100 mg/kg, the minimal effective dose (Mus musculus [11]) was 100 mg/kg and the minimal effective dose (Mus musculus [7]) was 300 mg/kg. For the same compound, the MTC (Mus musculus [9]) was 300 mg/kg.
With NC(=O)N1c2ccccc2C=Cc2ccccc21 [CARBAMAZEPINE] the MTC (Mus musculus [1]) was 300 mg/kg, the Activity (Mus musculus [3]) was “Non-toxic” and the minimal effective dose (Mus musculus [5]) was 30 mg/kg. For the same compound, the minimal effective dose (Mus musculus [6]) was 100 mg/kg, the minimal effective dose (Mus musculus [11]) was 300 mg/kg and the minimal effective dose (Mus musculus [7]) was 100 mg/kg.
In the case of COc1cc2c(cc1OC)C(=O)C(CC1CCN(C(=S)Nc3ccccc3C)CC1)C2 (stereo not drawn), the MTC (Mus musculus [1]) is reported as 100 mg/kg, the Activity (Mus musculus [2]) is reported as “Non-toxic” and the Activity (Mus musculus [12]) is reported as “inactive”. For the same compound, the minimal effective dose (Mus musculus [5]) was 100 mg/kg, the minimal effective dose (Mus musculus [11]) was 300 mg/kg and the Activity (Mus musculus [8]) was “inactive”. The MTC (Mus musculus [9]) was 300 mg/kg.
In the case of COc1cc2c(cc1OC)C(=O)C(CC1CCN(C(=S)Nc3cccc([N+](=O)[O-])c3)CC1)C2 (stereo not drawn), the Activity (Mus musculus [12]) is reported as “inactive” and the minimal effective dose (Mus musculus [5]) is reported as 300 mg/kg.
With O=C1NC(=O)C(c2ccccc2)(c2ccccc2)N1 [PHENYTOIN] the MTC (Mus musculus [1]) was 100 mg/kg, the Activity (Mus musculus [4]) was “inactive” and the minimal effective dose (Mus musculus [5]) was 30 mg/kg. The minimal effective dose (Mus musculus [6]) was 30 mg/kg, the Activity (Mus musculus [8]) was “inactive” and the MTC (Mus musculus [9]) was 100 mg/kg.
With COc1cc2c(cc1OC)C(=O)C(CC1CCN(C(=S)Nc3ccc(Cl)cc3)CC1)C2 (stereo not drawn) the MTC (Mus musculus [1]) was 100 mg/kg, the Activity (Mus musculus [2]) was “Non-toxic” and the Activity (Rattus norvegicus [13]) was 27.66 µg. The logP [14] was 5.11, the Activity (Rattus norvegicus [15]) was 44.81 µg and the minimal effective dose (Mus musculus [5]) was 30 mg/kg. For the same compound, the minimal effective dose (Mus musculus [6]) was 100 mg/kg, the minimal effective dose (Mus musculus [11]) was 100 mg/kg and the Activity (Rattus norvegicus [16]) was 13.47 µg. For the same compound, the minimal effective dose (Mus musculus [7]) was 300 mg/kg, the MTC (Mus musculus [9]) was 300 mg/kg and the Activity (Rattus norvegicus [17]) was 40.75 µg.
In the case of COc1cc2c(cc1OC)C(=O)C(CC1CCN(C(=S)Nc3cccc(C)c3)CC1)C2 (stereo not drawn), the Activity (Mus musculus [12]) is reported as “inactive” and the minimal effective dose (Mus musculus [5]) is reported as 300 mg/kg.
In the case of COc1cc2c(cc1OC)C(=O)C(CC1CCN(C(=S)Nc3cccc(Cl)c3)CC1)C2 (stereo not drawn), the Activity (Mus musculus [12]) is reported as “inactive” and the minimal effective dose (Mus musculus [5]) is reported as 300 mg/kg.
In the case of COc1cc2c(cc1OC)C(=O)C(CC1CCN(C(=S)Nc3ccccc3)CC1)C2 (stereo not drawn), the MTC (Mus musculus [1]) is reported as 300 mg/kg, the Activity (Mus musculus [3]) is reported as “Non-toxic” and the minimal effective dose (Mus musculus [5]) is reported as 100 mg/kg. For the same compound, the minimal effective dose (Mus musculus [6]) was 300 mg/kg, the minimal effective dose (Mus musculus [11]) was 100 mg/kg and the minimal effective dose (Mus musculus [7]) was 300 mg/kg.
With COc1cc2c(cc1OC)C(=O)C(CC1CCN(C(=S)Nc3ccc(C)cc3)CC1)C2 (stereo not drawn) the MTC (Mus musculus [1]) was 300 mg/kg, the Activity (Mus musculus [3]) was “Non-toxic” and the Activity (Rattus norvegicus [13]) was 31.83 µg. For the same compound, the logP [14] was 4.58, the Activity (Rattus norvegicus [15]) was 61.05 µg and the minimal effective dose (Mus musculus [5]) was 30 mg/kg. For the same compound, the minimal effective dose (Mus musculus [6]) was 100 mg/kg, the minimal effective dose (Mus musculus [11]) was 100 mg/kg and the Activity (Rattus norvegicus [16]) was 15.62 µg. The minimal effective dose (Mus musculus [7]) was 300 mg/kg and the Activity (Rattus norvegicus [17]) was 49.82 µg.
In the case of COc1cc2c(cc1OC)C(=O)C(CC1CCN(C(=S)Nc3ccc([N+](=O)[O-])cc3)CC1)C2 (stereo not drawn), the MTC (Mus musculus [1]) is reported as 300 mg/kg, the Activity (Mus musculus [2]) is reported as “Non-toxic” and the Activity (Mus musculus [3]) is reported as “Non-toxic”. The Activity (Rattus norvegicus [13]) was 28.06 µg, the logP [14] was 4.58 and the Activity (Rattus norvegicus [15]) was 59.33 µg. For the same compound, the minimal effective dose (Mus musculus [5]) was 30 mg/kg, the minimal effective dose (Mus musculus [6]) was 300 mg/kg and the minimal effective dose (Mus musculus [11]) was 100 mg/kg. The Activity (Rattus norvegicus [16]) was 15.71 µg, the Activity (Mus musculus [8]) was “inactive” and the Activity (Rattus norvegicus [17]) was 35.13 µg.
For COc1cc2c(cc1OC)C(=O)C(CC1CCN(C(=S)Nc3ccccc3Cl)CC1)C2 (stereo not drawn), the MTC (Mus musculus [1]) was 300 mg/kg, the Activity (Mus musculus [2]) was “Toxic” and the Activity (Mus musculus [3]) was “Non-toxic”. The minimal effective dose (Mus musculus [5]) was 100 mg/kg, the minimal effective dose (Mus musculus [6]) was 300 mg/kg and the minimal effective dose (Mus musculus [11]) was 300 mg/kg. It also gave a minimal effective dose (Mus musculus [7]) of 300 mg/kg.
